# Columns and labels:
# Test in all cases: MIC by the agar dilution method
# Format in all cases: cell-based
# S. pyogenes S-8 = details: Streptococcus pyogenes, S8, 10^8 CFU/ml, Trypticase soy agar, 37° C. overnight
# Procedure: (§1) The MICs of the test compound were determined by the agar dilution method. Thus, 1.0 ml portions of serially diluted aqueous solutions of the test compound were poured in petri dishes and admixed with 9.0 ml portions of Trypticase soy agar. Then, a suspension (about 10^8 CFU/ml) of each test strain was smeared on each agar plate and incubated at 37° C. overnight. The lowest concentration of the test compound inhibiting growth of the test strain 100% was regarded as the minimal inhibitory concentration, MIC.
# S. aureus 1840 = details: Staphylococcus aureus, 10^8 CFU/ml, Trypticase soy agar, 37° C. overnight
# Procedure: as §1
# E. coli NIHJ T-7 = details: Escherichia coli, NIHJT7, 10^8 CFU/ml, Trypticase soy agar, 37° C. overnight
# Procedure: as §1
# P. vulgaris IFO 3988 = details: Proteus vulgaris, IFO3988, 10^8 CFU/ml, Trypticase soy agar, 37° C. overnight
# Procedure: as §1
# E. cloacae IFO 12937 = details: Enterobacter cloacae, IFO12937, 10^8 CFU/ml, Trypticase soy agar, 37° C. overnight
# Procedure: as §1
# C. freundii IFO 12681 = details: Citrobacter freundii, IFO12681, 10^8 CFU/ml, Trypticase soy agar, 37° C. overnight
# Procedure: as §1
# C. freundii TN 474 = details: Citrobacter freundii, TN474, 10^8 CFU/ml, Trypticase soy agar, 37° C. overnight
# Procedure: as §1
# C. diphtheriae Tronto = details: Corynebacterium diphtheriae, 10^8 CFU/ml, Trypticase soy agar, 37° C. overnight
# Procedure: as §1
# S. aureus 308A-1 = details: Staphylococcus aureus, 308A1, 10^8 CFU/ml, Trypticase soy agar, 37° C. overnight
# Procedure: as §1
# S. marcescens IFO 12648 = details: Serratia marcescens, IFO12648, 10^8 CFU/ml, Trypticase soy agar, 37° C. overnight
# Procedure: as §1
# M. morganii IFO 3168 = details: Morganella morganii, IFO3168, 10^8 CFU/ml, Trypticase soy agar, 37° C. overnight
# Procedure: as §1
# K. pneumoniae DT = details: Klebsiella pneumoniae, 10^8 CFU/ml, Trypticase soy agar, 37° C. overnight
# Procedure: as §1
# P. mirabilis IFO 3849 = details: Proteus mirabilis, IFO3849, 10^8 CFU/ml, Trypticase soy agar, 37° C. overnight
# Procedure: as §1
# K. oxytoca TN 1711 = details: Klebsiella oxytoca, TN1711, 10^8 CFU/ml, Trypticase soy agar, 37° C. overnight
# Procedure: as §1
# E. cloacae TN 583 = details: Enterobacter cloacae, TN583, 10^8 CFU/ml, Trypticase soy agar, 37° C. overnight
# Procedure: as §1
# S. pyogenes E-14 = details: Streptococcus pyogenes, E14, 10^8 CFU/ml, Trypticase soy agar, 37° C. overnight
# Procedure: as §1
# E. coli NIHJ O-111 = details: Escherichia coli, NIHJO111, 10^8 CFU/ml, Trypticase soy agar, 37° C. overnight
# Procedure: as §1
# S. aureus FDA 209P = details: Staphylococcus aureus, FDA209P, 10^8 CFU/ml, Trypticase soy agar, 37° C. overnight
# Procedure: as §1
# S. pneumoniae Type I = details: Streptococcus pneumoniae, 10^8 CFU/ml, Trypticase soy agar, 37° C. overnight
# Procedure: as §1
# S. mitis America = details: Streptococcus mitis, 10^8 CFU/ml, Trypticase soy agar, 37° C. overnight
# Procedure: as §1
# E. coli NIHJ JC-2 = details: Escherichia coli, NIHJJC2, 10^8 CFU/ml, Trypticase soy agar, 37° C. overnight
# Procedure: as §1
compound,measurement,setting,value
C[C@@H](O)[C@H]1C(=O)N2C(C(=O)O)=C3[C@@H](CCO)CCO[C@@H]3[C@H]12 [Example 19],MIC,S. pyogenes S-8,< 0.1 µg/mL
same,MIC,S. aureus 1840,0.2 µg/mL
same,MIC,E. coli NIHJ T-7,1.56 µg/mL
same,MIC,P. vulgaris IFO 3988,0.78 µg/mL
same,MIC,E. cloacae IFO 12937,6.25 µg/mL
same,MIC,C. freundii IFO 12681,0.2 µg/mL
same,MIC,C. freundii TN 474,6.25 µg/mL
same,MIC,C. diphtheriae Tronto,0.2 µg/mL
same,MIC,S. aureus 308A-1,< 0.1 µg/mL
same,MIC,S. marcescens IFO 12648,0.78 µg/mL
same,MIC,M. morganii IFO 3168,0.78 µg/mL
same,MIC,K. pneumoniae DT,0.2 µg/mL
same,MIC,P. mirabilis IFO 3849,0.39 µg/mL
same,MIC,K. oxytoca TN 1711,1.56 µg/mL
same,MIC,E. cloacae TN 583,12.5 µg/mL
same,MIC,S. pyogenes E-14,< 0.1 µg/mL
same,MIC,E. coli NIHJ O-111,< 0.1 µg/mL
same,MIC,S. aureus FDA 209P,< 0.1 µg/mL
same,MIC,S. pneumoniae Type I,< 0.1 µg/mL
same,MIC,S. mitis America,< 0.1 µg/mL
same,MIC,E. coli NIHJ JC-2,< 0.1 µg/mL
